According to patent US20250236608A1, “EGFR INHIBITORS” (Blueprint Medicines Corporation, priority 2022, published 2025):

What was measured:
[1] = target: pEGFR (Tyr1068) in PC-9 cells (Ex19Del) (Homo sapiens (Human), UniProt P00533, DEL746-750); experiment: PC-9 pEGFR AlphaLISA assay; format: cell-based; conditions: 4 hours incubation, p-EGFR (Tyr1068) AlphaLISA, read-out: Ext pEGFR_PC-9 Ex19Del IC50
How it was run: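 Cells seeded in phenol-free DMEM with 10% FBS adhered overnight at 37° C./5% CO2, then were exposed for 4 hours to a 4-fold, 10-point compound dilution series. After lysis, phospho-EGFR was read by AlphaLISA SureFire Ultra, and IC50 was fitted from percent inhibition versus log concentration.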

EGFR L858R = EGFR L858R (Homo sapiens (Human), UniProt P00533, L858R); experiment: Biochemical EGFR inhibition assay, EGFR L858R; conditions: Caliper mobility shift; 1.0 mM ATP or ATP Km; read-out: Enz EGFR_L858R IC50
EGFR L858R, sequence (P00533 25-1210 L858R): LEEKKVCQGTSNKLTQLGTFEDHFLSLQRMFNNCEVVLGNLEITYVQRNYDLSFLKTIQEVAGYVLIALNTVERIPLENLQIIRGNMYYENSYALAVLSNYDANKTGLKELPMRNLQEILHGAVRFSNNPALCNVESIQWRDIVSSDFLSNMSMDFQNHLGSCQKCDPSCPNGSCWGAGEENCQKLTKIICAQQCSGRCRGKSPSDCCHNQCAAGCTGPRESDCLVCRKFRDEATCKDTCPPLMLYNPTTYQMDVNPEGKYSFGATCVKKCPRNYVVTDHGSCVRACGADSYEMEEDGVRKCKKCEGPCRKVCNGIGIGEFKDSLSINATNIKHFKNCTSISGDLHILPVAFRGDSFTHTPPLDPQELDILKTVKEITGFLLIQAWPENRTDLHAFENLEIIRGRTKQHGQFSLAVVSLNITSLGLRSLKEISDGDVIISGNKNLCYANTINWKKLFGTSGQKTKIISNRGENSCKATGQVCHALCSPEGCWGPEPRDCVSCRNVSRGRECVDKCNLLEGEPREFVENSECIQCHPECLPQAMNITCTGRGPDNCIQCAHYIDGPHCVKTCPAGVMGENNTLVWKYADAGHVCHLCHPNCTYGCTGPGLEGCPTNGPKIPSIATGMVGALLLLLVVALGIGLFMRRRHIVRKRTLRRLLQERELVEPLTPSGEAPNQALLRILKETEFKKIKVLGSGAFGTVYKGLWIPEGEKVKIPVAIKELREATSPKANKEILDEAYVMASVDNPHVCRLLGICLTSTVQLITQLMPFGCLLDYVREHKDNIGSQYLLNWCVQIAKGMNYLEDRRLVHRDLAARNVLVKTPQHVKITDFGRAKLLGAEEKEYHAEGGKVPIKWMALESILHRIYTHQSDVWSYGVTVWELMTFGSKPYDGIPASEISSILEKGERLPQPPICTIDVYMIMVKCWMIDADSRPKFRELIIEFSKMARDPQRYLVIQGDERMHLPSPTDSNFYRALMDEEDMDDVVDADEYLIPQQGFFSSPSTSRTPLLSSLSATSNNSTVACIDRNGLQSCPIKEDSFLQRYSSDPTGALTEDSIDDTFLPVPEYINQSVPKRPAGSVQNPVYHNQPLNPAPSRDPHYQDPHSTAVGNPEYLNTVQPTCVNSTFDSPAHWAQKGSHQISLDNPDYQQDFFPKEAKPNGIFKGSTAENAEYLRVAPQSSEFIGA

EGFR (d746-750) = EGFR (d746-750) (Homo sapiens (Human), UniProt P00533, DEL746-750); experiment: Biochemical EGFR inhibition assay, EGFR (d746-750); conditions: Caliper mobility shift; 1.0 mM ATP or ATP Km; read-out: Enz EGFR_Exon19-del746-750 IC50
EGFR (d746-750), sequence (P00533 other isoform, or with tags, fused parts or gaps del 1-694/del 746-750 limits assumed): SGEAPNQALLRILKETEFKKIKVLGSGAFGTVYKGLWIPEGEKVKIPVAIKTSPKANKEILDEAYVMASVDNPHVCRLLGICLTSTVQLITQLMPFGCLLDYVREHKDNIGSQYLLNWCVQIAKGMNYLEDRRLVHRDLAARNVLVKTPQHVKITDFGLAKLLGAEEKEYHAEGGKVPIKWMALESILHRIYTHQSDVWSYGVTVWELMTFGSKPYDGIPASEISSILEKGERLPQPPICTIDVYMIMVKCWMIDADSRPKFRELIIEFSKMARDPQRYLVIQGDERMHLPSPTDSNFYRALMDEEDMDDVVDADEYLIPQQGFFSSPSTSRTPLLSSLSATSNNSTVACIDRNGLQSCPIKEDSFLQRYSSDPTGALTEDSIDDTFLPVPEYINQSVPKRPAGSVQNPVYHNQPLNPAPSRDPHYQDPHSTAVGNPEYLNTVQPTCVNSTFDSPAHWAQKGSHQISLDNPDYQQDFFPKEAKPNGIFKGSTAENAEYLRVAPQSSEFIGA

pEGFR (Tyr1068) in PC-9 cells (Ex19Del), sequence (P00533 other isoform, or with tags, fused parts or gaps del 746-750): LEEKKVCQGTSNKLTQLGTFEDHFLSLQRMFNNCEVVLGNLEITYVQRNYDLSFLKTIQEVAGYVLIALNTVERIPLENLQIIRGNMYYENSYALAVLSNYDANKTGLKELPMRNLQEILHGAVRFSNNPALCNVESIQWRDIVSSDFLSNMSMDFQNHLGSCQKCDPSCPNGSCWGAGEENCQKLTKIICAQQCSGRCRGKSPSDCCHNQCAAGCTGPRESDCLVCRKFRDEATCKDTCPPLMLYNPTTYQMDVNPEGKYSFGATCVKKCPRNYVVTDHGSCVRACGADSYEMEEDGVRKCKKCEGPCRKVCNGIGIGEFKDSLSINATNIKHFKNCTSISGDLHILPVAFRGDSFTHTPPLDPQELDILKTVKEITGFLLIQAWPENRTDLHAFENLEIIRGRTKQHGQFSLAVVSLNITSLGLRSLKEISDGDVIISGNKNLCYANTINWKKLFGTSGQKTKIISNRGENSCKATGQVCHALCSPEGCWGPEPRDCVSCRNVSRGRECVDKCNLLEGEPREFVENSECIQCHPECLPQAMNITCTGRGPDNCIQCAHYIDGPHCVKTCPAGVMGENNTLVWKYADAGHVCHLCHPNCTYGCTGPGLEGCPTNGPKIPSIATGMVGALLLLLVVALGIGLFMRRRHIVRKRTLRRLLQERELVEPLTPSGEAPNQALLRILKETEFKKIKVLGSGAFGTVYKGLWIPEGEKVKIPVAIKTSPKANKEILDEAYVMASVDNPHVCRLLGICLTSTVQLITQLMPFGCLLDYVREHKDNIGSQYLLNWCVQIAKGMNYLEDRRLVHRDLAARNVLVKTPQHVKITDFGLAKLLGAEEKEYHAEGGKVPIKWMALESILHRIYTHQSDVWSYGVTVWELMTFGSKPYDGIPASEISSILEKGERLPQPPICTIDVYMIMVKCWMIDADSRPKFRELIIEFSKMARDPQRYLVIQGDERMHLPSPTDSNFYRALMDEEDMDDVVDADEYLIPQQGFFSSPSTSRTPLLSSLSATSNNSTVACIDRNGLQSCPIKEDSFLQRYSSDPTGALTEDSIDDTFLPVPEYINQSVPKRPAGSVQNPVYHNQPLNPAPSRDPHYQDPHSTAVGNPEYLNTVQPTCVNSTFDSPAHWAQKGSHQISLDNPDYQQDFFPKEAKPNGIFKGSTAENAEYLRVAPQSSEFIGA

Compound	IC50 [1] [nM]	IC50 (EGFR L858R) [nM]	IC50 (EGFR (d746-750)) [nM]
COc1cc2ncnc(-c3cn(C)nc3-c3ccccc3)c2cc1OC(=O)N1C[C@@H](C)OC[C@@H]1C (racemic) [Example 91, trans-rac-7-methoxy-4-(1-methyl-3-phenyl-1H-pyrazol-4-yl)quinazolin-6-yl (2R,5S)-2,5-dimethylmorpholine-4-carboxylate or cis-rac-7-methoxy-4-(1-methyl-3-phenyl-1H-pyrazol-4-yl)quinazolin-6-yl (2S,5S)-2,5-dimethylmorpholine-4-carboxylate]	9.5	9.3	5.6
CCn1cc(-c2ncnc3cc(-c4cnn(C)c4)ccc23)c(-c2ccccc2)n1 [Example 496]	0.4	0.7	0.6
COc1cc2ncnc(-c3cn(C)nc3-c3ccccc3)c2cc1NC(=O)[C@H](C)F (single isomer, unassigned) [Example 244, (S)-2-fluoro-N-(7-methoxy-4-(1-methyl-3-phenyl-1H-pyrazol-4-yl)quinazolin-6-yl) propenamide or (R)-2-fluoro-N-(7-methoxy-4-(1-methyl-3-phenyl-1H-pyrazol-4-yl)quinazolin-6-yl) propenamide]	2.3	2.2	1.3
COc1cc2ncnc(-c3cn(CC(F)F)nc3-c3ccccc3)c2nc1NC(=O)C1(C(F)(F)F)CC1 [Example 370, N-(4-(1-(2,2-difluoroethyl)-3-phenyl-1H-pyrazol-4-yl)-7-methoxypyrido[3,2-d]pyrimidin-6-y1)-1-(trifluoromethyl)cyclopropane-1-carboxamide]	0.4	1.1	0.7
COc1cc2ncnc(-c3cn(C)nc3-c3ccccc3)c2nc1NC(=O)c1ccc(C2CC2)nc1 [Example 357, 6-cyclopropyl-N-(7-methoxy-4-(1-methyl-3-phenyl-1H-pyrazol-4-yl)pyrido[3,2-d]pyrimidin-6-yl)nicotinamide]	4.4	2.2	1.1
CCOc1cc2ncnc(-c3cn(C)nc3-c3ccccc3)c2nc1NC(=O)[C@]12COC[C@H]1C2 (single isomer, unassigned) [Example 379, (1S,5S)—N-(7-ethoxy-4-(1-methyl-3-phenyl-1H-pyrazol-4-yl)pyrido[3,2-d]pyrimidin-6-yl)-3-oxabicyclo[3.1.0]hexane-1-carboxamide or (1R,5R)—N-(7-ethoxy-4-(1-methyl-3-phenyl-1H-pyrazol-4-yl)pyrido[3,2-d]pyrimidin-6-yl)-3-oxabicyclo[3.1.0]hexane-1-carboxamide]	0.8	2.5	0.7
COc1cc2ncnc(-c3cn(C)nc3-c3ccccc3F)c2nc1NC(=O)[C@]12COC[C@H]1C2 (single isomer, unassigned) [Example 386, (1S,5S)—N-(4-(3-(2-fluorophenyl)-1-methyl-1H-pyrazol-4-yl)-7-methoxypyrido[3,2-d]pyrimidin-6-yl)-3-oxabicyclo[3.1.0]hexane-1-carboxamide or (1R,5R)—N-(4-(3-(2-fluorophenyl)-1-methyl-1H-pyrazol-4-yl)-7-methoxypyrido[3,2-d]pyrimidin-6-yl)-3-oxabicyclo[3.1.0]hexane-1-carboxamide]	1.7	2.1	1.1
CCn1cc(-c2ncnc3cc(OC)c(NC(=O)[C@]45COC[C@H]4C5)cc23)c(-c2ccc(F)cc2)n1 [Example 335, (1S,5S)—N-(4-(1-ethyl-3-(4-fluorophenyl)-1H-pyrazol-4-yl)-7-methoxyquinazolin-6-yl)-3-oxabicyclo[3.1.0]hexane-1-carboxamide]	3	2.9	1.6
COc1cc2ncnc(-c3cn(C)nc3-c3ccccc3)c2nc1NC(=O)C12CC(N(C)C)(C1)C2 [Example 404, 3-(dimethylamino)-N-(7-methoxy-4-(1-methyl-3-phenyl-1H-pyrazol-4-yl)pyrido[3,2-d]pyrimidin-6-yl)bicyclo[1.1.1]pentane-1-carboxamide]	3.6	5.9	0.7
COc1cc2ncnc(-c3cn(CC(F)F)nc3-c3ccccc3)c2cc1C(C)(C)O [Example 122, 2-(4-(1-(2,2-difluoroethyl)-3-phenyl-1H-pyrazol-4-yl)-7-methoxyquinazolin-6-yl) propan-2-ol]	2.8	1.9	1.3
COc1cc2ncnc(-c3cn(C)nc3-c3ccccc3)c2cc1NC(=O)[C@H]1C[C@H]1C [Example 282, (1S,2R)—N-(7-methoxy-4-(1-methyl-3-phenyl-1H-pyrazol-4-yl)quinazolin-6-yl)-2-methylcyclopropane-1-carboxamide]	0.7	2.2	1.6
COc1cc2ncnc(-c3cn(C)nc3-c3ccccc3)c2cc1-c1ccc2c(c1)CN(C)C2=O [Example 137, 5-(7-methoxy-4-(1-methyl-3-phenyl-1H-pyrazol-4-yl)quinazolin-6-yl)-2-methylisoindolin-1-one]	3.6	3.9	2.2
COc1cc2ncnc(-c3cn(C)nc3-c3ccccc3)c2nc1NC(=O)[C@@]12COC[C@@H]1C2 (single isomer, unassigned) [Example 431, (1R,5R)—N-(7-methoxy-4-(1-methyl-3-phenyl-1H-pyrazol-4-yl)pyrido[3,2-d]pyrimidin-6-yl)-3-oxabicyclo[3.1.0]hexane-1-carboxamide or (1S,5S)—N-(7-methoxy-4-(1-methyl-3-phenyl-1H-pyrazol-4-yl)pyrido[3,2-d]pyrimidin-6-yl)-3-oxabicyclo[3.1.0]hexane-1-carboxamide]	1.2	1.4	0.6
COc1cc2ncnc(-c3cn(C)nc3-c3ccccc3)c2cc1NC(=O)c1cnn(C(F)(F)F)c1C [Example 234, N-(7-methoxy-4-(1-methyl-3-phenyl-1H-pyrazol-4-yl)quinazolin-6-yl)-5-methyl-1-(trifluoromethyl)-1H-pyrazole-4-carboxamide]	2.8	1.9	1.1
COc1cc2ncnc(-c3cn(C)nc3-c3ccccc3)c2cc1-c1cccc2c1cnn2C [Example 141, 7-methoxy-6-(1-methyl-1H-indazol-4-yl)-4-(1-methyl-3-phenyl-1H-pyrazol-4-yl)quinazoline]	7.6	7.1	1.9
COc1cc2ncnc(-c3cn(C)nc3-c3ccccc3)c2nc1NC(=O)[C@]12C[C@H]1CN(C)C2 (single isomer, unassigned) [Example 393, (1R,5R)—N-(7-methoxy-4-(1-methyl-3-phenyl-1H-pyrazol-4-yl)pyrido[3,2-d]pyrimidin-6-yl)-3-methyl-3-azabicyclo[3.1.0]hexane-1-carboxamide or (1S,5S)—N-(7-methoxy-4-(1-methyl-3-phenyl-1H-pyrazol-4-yl)pyrido[3,2-d]pyrimidin-6-yl)-3-methyl-3-azabicyclo[3.1.0]hexane-1-carboxamide]	3.5	2.1	0.9
COc1cc2ncnc(-c3cn(C)nc3-c3ccccc3)c2cc1OC(=O)N1[C@@H](C)CNC[C@@H]1C [Example 88, 7-methoxy-4-(1-methyl-3-phenyl-1H-pyrazol-4-yl)quinazolin-6-yl (2S,6S)-2,6-dimethylpiperazine-1-carboxylate]	7.5	3.2	1.9
COc1cc2ncnc(-c3cn(C)nc3-c3ccc(F)cc3F)c2nc1NC(=O)C12CC(C1)C2 [Example 421, N-(4-(3-(2,4-difluorophenyl)-1-methyl-1H-pyrazol-4-yl)-7-methoxypyrido[3,2-d]pyrimidin-6-yl)bicyclo[1.1.1]pentane-1-carboxamide]	1.9	1.3	1.8
CN1CCC(n2cc(-c3ccc4c(-c5c[nH]nc5-c5ccccc5)ncnc4c3)cn2)CC1 [Example 442, 7-(1-(1-methylpiperidin-4-yl)-1H-pyrazol-4-yl)-4-(3-phenyl-1H-pyrazol-4-yl)quinazoline]	0.4	1.4	1.1
COc1cc2ncnc(-c3cn(C(F)F)nc3-c3ccccc3)c2nc1NC(=O)C12CC(C1)C2 [Example 364, N-(4-(1-(difluoromethyl)-3-phenyl-1H-pyrazol-4-yl)-7-methoxypyrido[3,2-d]pyrimidin-6-yl)bicyclo[1.1.1]pentane-1-carboxamide]	4	2.1	1
COc1cc2ncnc(-c3c[nH]nc3-c3ccccc3)c2cc1[C@H]1CCCCO1 (single isomer, unassigned) [Example 133, (R)-7-methoxy-4-(3-phenyl-1H-pyrazol-4-yl)-6-(tetrahydro-2H-pyran-2-yl)quinazoline or (S)-7-methoxy-4-(3-phenyl-1H-pyrazol-4-yl)-6-(tetrahydro-2H-pyran-2-yl)quinazoline]	2.4	1.1	0.5
COc1cc2ncnc(-c3c[nH]nc3-c3ccccc3)c2cc1[C@@H]1CCCCO1 (single isomer, unassigned) [Example 132, (S)-7-methoxy-4-(3-phenyl-1H-pyrazol-4-yl)-6-(tetrahydro-2H-pyran-2-yl)quinazoline or (R)-7-methoxy-4-(3-phenyl-1H-pyrazol-4-yl)-6-(tetrahydro-2H-pyran-2-yl)quinazoline]	0.6	1.4	0.9
